Results: PubChem BioAssay (NCI)
Values joined by “and” are separate entries in the source; they are usually repeats but may differ in a detail not shown here. Equal entries are not always repeated.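 Dose response: 5 concentrations. Exposure: 48 h. Format: 96-well plates. Endpoint: linear interpolation; highest concentration if not reached. GI50 marks 50% less growth. TGI: concentration producing complete growth inhibition.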

Legend:
Assay in all cases: NCI tumour cell line growth inhibition, 48 h
[1] = test system: BT-549 breast
[2] = test system: COLO 205 colon
[3] = test system: A549 NSCLC
[4] = test system: TK-10 renal
[5] = test system: MDA-MB-435
[6] = test system: LOX IMVI melanoma
[7] = test system: IGROV1 ovarian
[8] = test system: SNB-19 CNS
[9] = test system: HL-60(TB) leukemia
[10] = test system: A498 renal

Row | Structure (SMILES) | GI50 [1] | TGI [1] | GI50 [2] | TGI [2] | GI50 [3] | TGI [3] | GI50 [4] | TGI [4] | GI50 [5] | TGI [5] | GI50 [6] | TGI [6] | GI50 [7] | TGI [7] | GI50 [8] | TGI [8] | GI50 [9] | TGI [9] | TGI [10] | GI50 [10]
1 | CNC(=O)n1ccc2cc(Oc3ccnc(NC(=O)c4ccc(C5CCN(CCO)CC5)cc4)c3)c(OCCOC)cc21 | 2.35 µM | 14.2 µM | 2.83 µM | 8.6 µM | 5.27 µM | 21.4 µM | 15.3 µM | 29.6 µM | 3.2 µM | 11.8 µM | 1.77 µM | 3.7 µM | 5.65 µM | 20.7 µM | 7.47 µM | 21.5 µM | 2.13 µM | 4.58 µM | – | –
2 | Cc1ccc(/C=C2\CN(C(=O)OC(C)(C)C)C/C(=C\c3ccc(C)cc3)C2=O)cc1 | 0.221 µM | 28.7 µM | 0.597 µM | 4.08 µM | – | > 100 µM | > 40.7 µM | > 100 µM | – | – | 0.0743 µM | > 100 µM | 0.367 µM | > 100 µM | 0.226 µM | > 100 µM | 0.0409 µM | 0.473 µM | > 100 µM | –
3 | Nc1c(C(=O)Nc2cccc([N+](=O)[O-])c2)sc2nc3c(cc12)C(O)CCC3 (stereo not given) | 7.76 µM | 57.3 µM | 3.51 µM | > 100 µM | 5.82 µM | > 100 µM | 15.9 µM | > 100 µM | 0.403 µM | 2.78 µM | 7.61 µM | > 100 µM | 26 µM | > 100 µM | 18.7 µM | > 100 µM | 2.37 µM | > 100 µM | > 100 µM | 2.7 µM
4 | CN(C)S(=O)(=O)c1ccc(NC(=O)COC(=O)c2ccc(S(=O)(=O)N3CCCCC3)cc2)cc1 | > 100 µM | > 100 µM | > 100 µM | > 100 µM | > 100 µM | > 100 µM | > 100 µM | > 100 µM | > 100 µM | > 100 µM | > 100 µM | > 100 µM | > 100 µM | > 100 µM | > 100 µM | > 100 µM | > 100 µM | > 100 µM | > 100 µM | > 100 µM
5 | C[C@@H](C(=O)Nc1ccc(Cl)cc1)C1CCC(c2ccnc3ccc(F)cc23)CC1 (stereo not given in full) | 3.72 µM | 22.8 µM | 8.8 µM | 34 µM | 9.9 µM | > 100 µM | 6.04 µM | 81.3 µM | 9.08 µM | 54.9 µM | 5.85 µM | 21.3 µM | 9.11 µM | > 100 µM | 10.8 µM | > 100 µM | 5.22 µM | 24.7 µM | 56.8 µM | 6.27 µM
6 | N#Cc1cnc2cc(OC[C@H](O)CO)c(NC(=O)CC3CSSC3)cc2c1Nc1ccc(OCc2cccc(F)c2)c(Cl)c1 | 0.133 µM | 0.43 µM | 0.883 µM | 1.81 µM | 0.924 µM | 1.98 µM | 0.873 µM | 2.13 µM | 0.272 µM | 0.878 µM | 2.26 µM | 3.41 µM | 0.446 µM | 1.39 µM | 0.447 µM | 1.43 µM | 0.806 µM | 1.93 µM | 2.45 µM | 1.03 µM
7 | COc1c2c(c3c(c1CCC(=O)O)OC(C)(C)C=C3)OC(C)(C)C=C2 | – | > 100 µM | – | > 100 µM | – | > 100 µM | – | > 100 µM | – | > 100 µM | – | > 100 µM | – | > 100 µM | – | > 100 µM | – | > 100 µM | > 100 µM | –
8 | CC(C)NC[C@@H](C(=O)N1CCN(c2ncnc3c2[C@H](C)C[C@H]3O)CC1)c1ccc(Cl)cc1 | 0.752 µM and 1.59 µM | > 10 µM and 56.2 µM | 3.48 µM and 7.6 µM | > 100 µM | > 10 µM and 5.05 µM | > 100 µM | 1.29 µM and 3.32 µM | > 66.4 µM | > 10 µM and 20.9 µM | > 100 µM | > 10 µM and 66 µM | > 100 µM | 0.156 µM and 0.203 µM | 0.731 µM and 3.02 µM | 1.64 µM and 1.38 µM | > 89.5 µM | > 10 µM and 39.4 µM | > 100 µM | 5.88 µM and 4.3 µM | 0.396 µM and 0.24 µM
9 | CC(C)(C)C[C@H]1NC(C(=O)NCC[C@H](O)CO)[C@H](c2cccc(Cl)c2)[C@@]12C(=O)Nc1cc(Cl)c(F)cc12 (stereo not given in full) | 16.3 µM | 34.2 µM | 16.1 µM | 30.7 µM | 3.13 µM | 17.4 µM | 19.2 µM | 39.5 µM | 14.1 µM | 29.6 µM | 3.12 µM | 19.1 µM | 4.08 µM | 21.1 µM | 21.1 µM | 59.8 µM | 14.7 µM | 40.1 µM | 18.7 µM | 4.41 µM
10 | CN(C)/C=C/c1nnc([N+](=O)[O-])s1 | – | 34.7 µM | – | 10.3 µM | – | 66.4 µM | – | 58.5 µM | – | 14.2 µM | – | 17.4 µM | – | – | – | 79.3 µM | – | – | 67.6 µM | –
11 | COc1ccc(-c2ccc(/C=N/n3c(COc4ccc(Cl)cc4Cl)n[nH]c3=S)o2)c([N+](=O)[O-])c1 | 21.9 µM | 50.2 µM | 32.9 µM | > 100 µM | 19.5 µM | > 100 µM | 16.8 µM | 49.2 µM | 18.1 µM | 38 µM | – | – | 38.7 µM | > 100 µM | 28.4 µM | > 100 µM | 21.5 µM | 51.2 µM | 41.5 µM | 16.8 µM
12 | O=C(c1ccccc1)C1N=NCC1c1ccc([N+](=O)[O-])cc1 (stereo not given) | – | 65.8 µM | – | > 100 µM | – | > 100 µM | – | > 100 µM | – | > 100 µM | – | > 100 µM | – | – | – | > 100 µM | – | 67.3 µM | > 100 µM | –
13 | Nc1ccn(Cc2ccc(C34CC5CC(CC(C5)C3)C4)c(O)c2)c(=O)n1 | > 100 µM | > 100 µM | > 100 µM | > 100 µM | – | – | > 100 µM | > 100 µM | > 100 µM | > 100 µM | > 100 µM | > 100 µM | – | – | 89.1 µM | > 100 µM | 62.9 µM | > 100 µM | > 100 µM | 59.4 µM
